According to PubChem BioAssay (NCI):
“And” between values parts separate entries of the source, which are not always exact repeats. Equal values may be shown once.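 Where inhibition never reached the appropriate level, the endpoint shown equals the highest concentration tested. Otherwise, values were interpolated linearly from a five-concentration, 48-hour dose response in 96-well plates. The concentration for 50% growth inhibition is given as GI50. Definition used: TGI = concentration required for complete inhibition of growth.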

Tests used:
Assay in all cases: NCI anticancer screen, dose series, 48 h
[1] = system: NCI-H23 lung
[2] = system: HOP-62 NSCLC
[3] = system: SF-295 CNS
[4] = system: UO-31 renal
[5] = system: MCF7 breast
[6] = system: SK-MEL-5 melanoma
[7] = system: EKVX NSCLC
[8] = system: RPMI-8226 leukemia
[9] = system: SW-620 colon
[10] = system: SN12C renal

SMILES | GI50 [1] | TGI [1] | GI50 [2] | TGI [2] | GI50 [3] | TGI [3] | GI50 [4] | TGI [4] | GI50 [5] | TGI [5] | GI50 [6] | TGI [6] | GI50 [7] | TGI [7] | GI50 [8] | TGI [8] | GI50 [9] | TGI [9] | GI50 [10] | TGI [10]
O=C(/C=C/c1cccc2ccccc12)Nc1ncc(Cc2ccccc2)s1 | 1.58 µM | > 100 µM | 0.885 µM | 4.56 µM | 0.443 µM | 2.33 µM | 1.39 µM | 3.98 µM | 0.434 µM | > 100 µM | 1.8 µM | > 100 µM | 1.12 µM | > 100 µM | 1.09 µM | > 100 µM | 0.737 µM | > 100 µM | 1.16 µM | > 100 µM
CC(/C=N/N=C(N)N)=N\N=C(N)N | 31.1 µM | > 61.8 µM and 171 µM | 14.8 µM | 46.9 µM |  | 856 µM | 11 µM | 552 µM | 19.4 µM | 1120 µM | > 79.5 µM | 604 µM | 61.5 µM | 499 µM | > 42.8 µM | 454 µM | 15 µM | 2070 µM |  | 941 µM
Oc1ccc(Cl)cc1/C=N\NC(=S)N/N=C/c1cc(Cl)ccc1O | 4.61 µM | 67.7 µM | 2.47 µM | > 100 µM | 3 µM | > 100 µM | 1.05 µM | 15.5 µM | 3.82 µM | > 100 µM | 1.34 µM | 3.88 µM | 3.23 µM | > 100 µM | 3.45 µM | 34.9 µM | 4.41 µM | > 100 µM | 3.12 µM | 64.7 µM
C/C(=N/O)c1ccc(Nc2cc(-n3ccnc3)c3ccccc3n2)cc1 | 42 µM | > 100 µM | 53.2 µM | > 100 µM | 15.1 µM | > 100 µM | 15.3 µM | > 100 µM | 85.3 µM | > 100 µM | 16.3 µM | > 100 µM | 22 µM | > 100 µM | 0.716 µM | 4.42 µM | 41.8 µM | > 100 µM | 39.5 µM | > 100 µM
Cc1c2ccncc2c(C)c2c1[nH]c1ccc(Cl)cc12 | 2.99 µM | 11.2 µM and 15 µM | 2.66 µM | 13.9 µM and 9.86 µM | 2.56 µM and 3.56 µM | 8.38 µM and 15.3 µM | 4.44 µM | 8.15 µM and 16.3 µM |  | 6.28 µM |  | 13.8 µM | 3.9 µM | 12.6 µM and 19.3 µM | 1.77 µM | 9.7 µM and 4.43 µM | 1.04 µM | 9.35 µM and 2.6 µM | 1.41 µM | 10.1 µM and 7.46 µM
CCCN1CCC=C(c2ccc(Nc3nc(Nc4ccccc4C(N)=O)c4cc[nH]c4n3)c(C)c2)C1 | 8.16 µM | > 25 µM | > 20 µM | > 25 µM | > 25 µM | > 25 µM | 2.98 µM | > 25 µM | 0.289 µM | > 25 µM | 13.2 µM | > 25 µM | > 17.8 µM | > 25 µM | 5.53 µM | > 21.7 µM | 1.48 µM | > 25 µM | > 21.1 µM | > 25 µM
CCCCCCCCCCSC(=N)N | 6.38 µM | 21.3 µM | 3.36 µM | 10.3 µM | 1.72 µM | 3.51 µM | 2.61 µM | 12.4 µM | 2.19 µM | 6.03 µM | 2.12 µM | 4.71 µM | 10.3 µM | 25.3 µM | 1.73 µM | 4.19 µM | 1.7 µM | 3.52 µM | 5.09 µM | 18.4 µM
Cc1ccc(S(=O)(=O)NC(CO)C(=O)O)cc1 (stereo unspecified) |  | > 100 µM |  | > 100 µM |  | > 100 µM |  | > 100 µM |  | > 100 µM |  | > 100 µM |  | > 100 µM |  | > 100 µM |  | > 100 µM |  | > 100 µM
